Results taken from patent US9434725B2, “5-azaindazole compounds and methods of use” (priority 2012, dated 2016).
pEC50, pIC50, pKi: −log10 of the molar value. Structures can show the parent of a compound that is named as a salt. Where two headings read alike, the source gives them in different places.

Tests used:
PIM2 = PIM2 (Homo sapiens (Human), UniProt Q9P1W9); assay: Pim kinase binding activity, Caliper LC3000 microfluidic peptide phosphorylation assay, PIM2; assay type: biochemical; conditions: 10 μM ATP, 90 min, room temperature; read-out: PIM2 LC3K (KI)
Sequence of PIM2 (Q9P1W9 whole entry): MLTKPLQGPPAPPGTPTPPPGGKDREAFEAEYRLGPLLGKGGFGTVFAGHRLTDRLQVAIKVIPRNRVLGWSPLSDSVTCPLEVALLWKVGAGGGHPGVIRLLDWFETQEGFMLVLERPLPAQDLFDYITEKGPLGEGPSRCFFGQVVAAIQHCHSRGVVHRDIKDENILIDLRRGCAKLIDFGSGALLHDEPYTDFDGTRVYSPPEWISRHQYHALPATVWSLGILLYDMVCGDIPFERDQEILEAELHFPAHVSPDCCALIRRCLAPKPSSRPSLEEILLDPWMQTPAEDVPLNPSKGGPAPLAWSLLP
Method in brief: (§1)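 Read-out is microfluidic electrophoretic separation of phosphorylated from unphosphorylated fluorescent Pim peptide, with Ki calculated from conversion. Reactions ran 90 min at room temperature in HEPES pH 7.2 containing MgCl2, Tween 20 and DTT, ended by EDTA-containing buffer.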

PIM3 = PIM3 (Homo sapiens (Human), UniProt Q86V86); assay: Pim kinase binding activity, Caliper LC3000 microfluidic peptide phosphorylation assay, PIM3; assay type: biochemical; conditions: 10 μM ATP, 90 min, room temperature; read-out: PIM3 LC3K (KI)
Method in brief: as §1

[1] = system: MM1.S (multiple myeloma) cells; assay: In vitro cell proliferation potency assay (Cell Titer Glo), MM1.S cells; assay type: cell-based; conditions: Homo sapiens, read-out: Prolif MM1S ATP (EC50)
Description: BaF3 parental line was obtained from the DSMZ repository. BaF3 lines transfected with PIM1 or PIM2 were generated. Mouse IL-3 was purchased from R&D Systems. G418 was purchased from Clontech. Media for BaF3 parental line contained RPMI, 10% FBS, 2 mM L-Glutamine, 2 ng/mL mIL-3. Media for BaF3 PIM1 & 2 lines contained RPMI, 10% FBS, 2 mM L-Glutamine, […]. Media for MM1.S (multiple myeloma cells) line contained RPMI, 10% FBS, 2 mM L-Glutamine.
BaF3, a murine interleukin-3 dependent pro-B cell line, parental cells, BaF3 PIM1 cells, BaF3 PIM2 cells, and MM1.S (multiple myeloma) cells were seeded at 2 k/well, 5 k/well, 5 k/well, and 10 k/well respectively, in a 384-well plate, at 45 μL/well. Test compound was added at 5 μL/well. BaF3 cells (parental and transfected) were incubated overnight, while MM1.S cells were incubated for 72 hours at 37° C., 5% CO2. CELL TITER GLO® Reagent (Promega) was added at 50 μL/well, the plates were incubated for 30 minutes, and their luminescence read on an HT Analyst. IC50/EC50 values for the test compound were calculated.

BaF3 PIM1 cells = assay: In vitro cell proliferation potency assay (Cell Titer Glo), BaF3 PIM1 cells; assay type: cell-based, murine; conditions: Mus musculus, BaF3, BaF3 cells transfected with PIM1, incubated overnight; read-out: Prolif BaF3_PIM 1 (IC50)
PIM1 = PIM1 (Homo sapiens (Human), UniProt P11309); assay: biochemical; assay type: biochemical; conditions: 10 μM ATP, 90 min, room temperature; read-out: PIM1 LC3K (KI)
Sequence of PIM1 (P11309 whole entry): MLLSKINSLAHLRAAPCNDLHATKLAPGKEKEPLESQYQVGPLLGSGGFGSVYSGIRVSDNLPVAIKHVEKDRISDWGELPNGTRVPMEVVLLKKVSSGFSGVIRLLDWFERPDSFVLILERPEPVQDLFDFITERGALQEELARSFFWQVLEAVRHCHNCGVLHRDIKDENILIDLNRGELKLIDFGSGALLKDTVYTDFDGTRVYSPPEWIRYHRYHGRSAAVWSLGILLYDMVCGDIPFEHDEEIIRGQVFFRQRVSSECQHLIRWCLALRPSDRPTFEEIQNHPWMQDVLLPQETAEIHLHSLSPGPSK
Method in brief: as §1

[2] = MM1.S, 72 h, MM1.S cells, 72 hours

SMILES | pKi (PIM2) | pKi (PIM3) | pEC50 [1, 2] | pIC50 (BaF3 PIM1 cells) | pKi (PIM1) | pEC50 ([1]; MM1.S cells, 72 hours) | pEC50 ([1]; MM1.S, 72 h)
CS(=O)(=O)CCn1cc(-c2cc3c(cn2)cnn3-c2cccc(N3CCCNCC3)n2)cn1 [Compound 157, 1-(6-(1,4-Diazepan-1-yl)pyridin-2-yl)-6-(1-(2-(methylsulfonyl)ethyl)-1H-pyrazol-4-yl)-1H-pyrazolo[4,3-c]pyridine] | 8.21 | 10.26 | 5.40 | 5.55 | 10.06 | – | –
c1cc(N2CCCNCC2)nc(-n2ncc3cnc(-c4cnn(C5CC5)c4)cc32)c1 [Compound 174, 1-(6-(1,4-Diazepan-1-yl)pyridin-2-yl)-6-(1-cyclopropyl-1H-pyrazol-4-yl)-1H-pyrazolo[4,3-c]pyridine] | 9.01 | 10.10 | – | 6.57 | 10.16 | 5.51 | –
COc1ccc(-n2ncc3cnc(-c4cncc(C)n4)cc32)nc1N1CCC[C@H](N)C1 [Compound 186, (S)-1-(3-methoxy-6-(6-(6-methylpyrazin-2-yl)-1H-pyrazolo[4,3-c]pyridin-1-yl)pyridin-2-yl)piperidin-3-amine] | 9.87 | 10.89 | – | 6.66 | 10.67 | 6.29 | –
OCc1cncc(-c2cc3c(cn2)cnn3-c2cccc(N3CCNCC3)n2)n1 [Compound 273, (6-(1-(6-(piperazin-1-yl)pyridin-2-yl)-1H-pyrazolo[4,3-c]pyridin-6-yl)pyrazin-2-yl)methanol dihydrochloride] | 8.58 | 10.44 | – | 6.20 | 9.93 | – | 5.26
C=Cc1cncc(-c2cc3c(cn2)cnn3-c2cccc(N3CCNCC3)n2)n1 [Compound 274, 1-(6-(piperazin-1-yl)pyridin-2-yl)-6-(6-vinylpyrazin-2-yl)-1H-pyrazolo[4,3-c]pyridine dihydrochloride] | 8.37 | 10.01 | – | 6.13 | 9.88 | – | 5.29
OCCOc1cncc(-c2cc3c(cn2)cnn3-c2cccc(N3CCNCC3)n2)n1 [Compound 278, 2-((6-(1-(6-(piperazin-1-yl)pyridin-2-yl)-1H-pyrazolo[4,3-c]pyridin-6-yl)pyrazin-2-yl)oxy)ethanol dihydrochloride] | 8.58 | 9.98 | – | 6.58 | 9.79 | – | < 5.21
FC(F)c1cncc(-c2cc3c(cn2)cnn3-c2cccc(N3CCNCC3)n2)n1 [Compound 279, 6-(6-(difluoromethyl)pyrazin-2-yl)-1-(6-(piperazin-1-yl)pyridin-2-yl)-1H-pyrazolo[4,3-c]pyridine trifluoroacetate] | 8.40 | 9.88 | – | 6.21 | 9.64 | 5.64 | –
N[C@H]1CCC[C@@H]1Oc1cncc(-c2cc3c(cn2)cnn3-c2ccccn2)n1 [Compound 304, (1S,2S)-2-(6-(1-(pyridin-2-yl)-1H-pyrazolo[4,3-c]pyridin-6-yl)pyrazin-2-yloxy)cyclopentanamine] | 9.13 | 10.15 | – | 6.59 | 10.03 | 5.92 | –
N[C@H]1CCC[C@@H]1Nc1cncc(-c2cc3c(cn2)cnn3-c2ccccn2)n1 [Compound 307, (1S,2S)-N1-(6-(1-(pyridin-2-yl)-1H-pyrazolo[4,3-c]pyridin-6-yl)pyrazin-2-yl)cyclopentane-1,2-diamine] | 8.53 | 10.01 | 5.54 | 6.19 | 9.92 | – | –
Cn1ncc(-c2cc3c(cn2)cnn3-c2ccccc2F)c1N1CCC(N)CC1 [Compound 316, 1-(4-(1-(2-fluorophenyl)-1H-pyrazolo[4,3-c]pyridin-6-yl)-1-methyl-1H-pyrazol-5-yl)piperidin-4-amine] | 6.47 | 7.32 | < 4.60 | < 4.60 | 7.81 | – | –

The next lines start with results.

pKi (PIM2) | pKi (PIM3) | pEC50 [1, 2] | pIC50 (BaF3 PIM1 cells) | pKi (PIM1) | pEC50 ([1]; MM1.S cells, 72 hours) | SMILES | pEC50 ([1]; MM1.S, 72 h)
9.54 | 10.70 | – | 6.31 | 10.17 | 5.96 | Cc1cncc(-c2cc3c(cn2)cnn3-c2ccc(C#N)c(N3CCC[C@H](N)C3)n2)n1 [Compound 201, (S)-2-(3-aminopiperidin-1-yl)-6-(6-(6-methylpyrazin-2-yl)-1H-pyrazolo[4,3-c]pyridin-1-yl)nicotinonitrile] | –
9.85 | 10.85 | 5.92 | 6.56 | 10.74 | – | Cc1cncc(-c2cc3c(cn2)cnn3-c2ccc(C)c(N3CCC[C@H](N)C3)n2)n1 [Compound 205, (S)-1-(3-methyl-6-(6-(6-methylpyrazin-2-yl)-1H-pyrazolo[4,3-c]pyridin-1-yl)pyridin-2-yl)piperidin-3-amine] | –
9.40 | 10.27 | – | 6.67 | 10.22 | 6.24 | Cc1cncc(-c2cc3c(cn2)cnn3-c2ccc(CO)c(N3CCC[C@H](N)C3)n2)n1 [Compound 218, (S)-(2-(3-aminopiperidin-1-yl)-6-(6-(6-methylpyrazin-2-yl)-1H-pyrazolo[4,3-c]pyridin-1-yl)pyridin-3-yl)methanol] | –
8.47 | 10.19 | 4.80 | 6.16 | 10.32 | – | OC1CN(c2cncc(-c3cc4c(cn3)cnn4-c3cccc(N4CCNCC4)n3)n2)C1 [Compound 281, 1-(6-(1-(6-(piperazin-1-yl)pyridin-2-yl)-1H-pyrazolo[4,3-c]pyridin-6-yl)pyrazin-2-yl)azetidin-3-ol] | –
8.74 | 10.60 | 5.34 | 6.41 | 10.70 | – | c1cc(N2CCNCC2)nc(-n2ncc3cnc(-c4cncc(N5CCC5)n4)cc32)c1 [Compound 284, 6-(6-(azetidin-1-yl)pyrazin-2-yl)-1-(6-(piperazin-1-yl)pyridin-2-yl)-1H-pyrazolo[4,3-c]pyridine] | –
8.83 | 9.95 | – | 6.01 | 10.21 | 5.14 | Cc1cncc(-c2cc3c(cn2)cnn3-c2cccc(N3CCCC4(CNC4)C3)n2)n1 [Compound 293, 1-(6-(2,6-diazaspiro[3.5]nonan-6-yl)pyridin-2-yl)-6-(6-methylpyrazin-2-yl)-1H-pyrazolo[4,3-c]pyndine] | –
8.84 | 9.84 | – | 6.37 | 9.59 | 4.96 | COC1(c2cccc(-n3ncc4cnc(-c5cncc(C)n5)cc43)n2)CCCNC1 (centres unmarked) [Compound 295, 1-(6-(3-methoxypiperidin-3-yl)pyridin-2-yl)-6-(6-methylpyrazin-2-yl)-1H-pyrazolo[4,3-c]pyridine] | –
9.35 | 10.74 | – | 6.11 | 10.47 | 5.40 | OCCCc1cncc(-c2cc3c(cn2)cnn3-c2cccc(N3CCNCC3)n2)n1 [Compound 301, 3-(6-(1-(6-(piperazin-1-yl)pyridin-2-yl)-1H-pyrazolo[4,3-c]pyridin-6-yl)pyrazin-2-yl)propan-1-ol] | –
8.76 | 10.24 | 6.16 | 5.70 | 9.87 | – | C#Cc1cncc(-c2cc3c(cn2)cnn3-c2cccc(N3CCNCC3)n2)n1 [Compound 315, 6-(6-ethynylpyrazin-2-yl)-1-(6-(piperazin-1-yl)pyridin-2-yl)-1H-pyrazolo[4,3-c]pyridine] | –
